Laboratory results published in the supplement of paper PMC11451515.

Experiments:
Details in all cases: 48 h
NOMO1 = test: AUC of viability dose-response curve (% viability x log10 dose units); higher = less sensitive
In short: (§1)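 Leukemia cells adapted to each medium (500 or 1000 cells/well, 1536-well plates) were exposed to library compounds in DMSO for 48 h at 37°C at 11 threefold doses, 47 μM to 0.79 nM. Luminescence by CellTiter-Glo One was normalised per plate to DMSO and cell-free wells, then fitted with a four-parameter log-logistic curve on log10 dose. Curves above full viability were scaled and quality-control failures removed before area under the curve was integrated by trapezoidal rule.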

P12-Ichikawa [1] = test: as above
In short: as §1

SEM cells [2] = test: as above
In short: as §1

P12-Ichikawa [3] = test: cell viability relative to DMSO control; higher = less cytotoxic
In short: (§2)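 Leukemia cells (NOMO1 or SEM, 500 cells/well; P12-Ichikawa, 1000 cells/well) were seeded in 5 μl in 1536-well plates after at least four passages of adaptation to each medium. They received library compounds in DMSO by pin dosing, 11 threefold points from 47 μM to 0.79 nM. Luminescence with CellTiter-Glo One was read after 48 h at 37°C. Viability is stated per plate relative to DMSO wells, with cell-free wells as background.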

SEM cells [4] = test: as above
In short: as §2

O=C(Cc1cccc(OC(F)(F)F)c1)Nc1ccc(CCCCc2nnc(NC(=O)Cc3ccccn3)s2)nn1
AUC of viability dose-response curve
Details | NOMO1 | P12-Ichikawa [1] | SEM cells [2]
HPLM + 10% dialyzed FBS | 407 | 426 | 381
RPMI 5 mM glucose + 10% FBS | 388 | 386 | 276
RPMI 5 mM glucose + 10% dialyzed FBS | 394 | 387 | 277

cell viability [%]
Details | HPLM + 10% dialyzed FBS | RPMI 5 mM glucose + 10% FBS | RPMI 5 mM glucose + 10% dialyzed FBS
P12-Ichikawa [3], 0.000781 µM | 120 | 121 | –
P12-Ichikawa [3], 0.00234 µM | 118 | 113 | –
P12-Ichikawa [3], 0.00702 µM | 126 | 121 | –
P12-Ichikawa [3], 0.0211 µM | 112 | 115 | –
P12-Ichikawa [3], 0.0632 µM | 115 | 103 | –
P12-Ichikawa [3], 0.19 µM | 107 | 95.6 | –
P12-Ichikawa [3], 0.569 µM | 101 | 83 | –
P12-Ichikawa [3], 1.71 µM | 99.4 | 83.2 | –
P12-Ichikawa [3], 5.12 µM | 103 | 71.2 | –
P12-Ichikawa [3], 15.4 µM | 91.7 | 77.8 | –
P12-Ichikawa [3], 46.1 µM | 95.8 | 76.5 | –
SEM cells [4], 0.000781 µM | 122 | – | 141
SEM cells [4], 0.00234 µM | 107 | – | 116
SEM cells [4], 0.00702 µM | 119 | – | 108
SEM cells [4], 0.0211 µM | 112 | – | 91.8
SEM cells [4], 0.0632 µM | 107 | – | 78.8
SEM cells [4], 0.19 µM | 89 | – | 70.3
SEM cells [4], 0.569 µM | 86.7 | – | 70.6
SEM cells [4], 1.71 µM | 87.4 | – | 60.2
SEM cells [4], 5.12 µM | 79.5 | – | 56.7
SEM cells [4], 15.4 µM | 72 | – | 50.7
SEM cells [4], 46.1 µM | 65.1 | – | 46

C[C@H]1O[C@H](O[C@H]2[C@H](O)[C@@H](O)[C@H](O[C@@H]2CO)O[C@H]3[C@H](O)[C@@H](O)C(O)O[C@@H]3CO)[C@H](O)[C@@H](O)[C@@H]1N[C@H]4\C=C(CO)/[C@@H](O)[C@H](O)[C@H]4O (stereo partly specified)
AUC of viability dose-response curve
Details | NOMO1 | P12-Ichikawa [1] | SEM cells [2]
HPLM + 10% dialyzed FBS | 330 | 321 | 437
RPMI 5 mM glucose + 10% FBS | 309 | 335 | 456
RPMI 5 mM glucose + 10% dialyzed FBS | 319 | 374 | 432

O=C([O-])Cc1ccccc1Nc1c(Cl)cccc1Cl
AUC of viability dose-response curve
Details | NOMO1 | P12-Ichikawa [1] | SEM cells [2]
HPLM + 10% dialyzed FBS | 454 | 447 | 442
RPMI 5 mM glucose + 10% FBS | 455 | 445 | 429
RPMI 5 mM glucose + 10% dialyzed FBS | 458 | 447 | 430

cell viability [%], SEM cells [4]
Details | HPLM + 10% dialyzed FBS | RPMI 5 mM glucose + 10% FBS
0.000781 µM | 109 | 126
0.00234 µM | 121 | 113
0.00702 µM | 110 | 113
0.0211 µM | 125 | 109
0.0632 µM | 126 | 123
0.19 µM | 129 | 112
0.569 µM | 117 | 111
1.71 µM | 122 | 111
5.12 µM | 75.7 | 69.1
15.4 µM | 112 | 108
46.1 µM | 65.9 | 49

CNC(=O)c1ccccc1Nc1nc(Nc2ccc(N3CCOCC3)cc2OC)ncc1Cl
AUC of viability dose-response curve
Details | NOMO1 | P12-Ichikawa [1] | SEM cells [2]
HPLM + 10% dialyzed FBS | 387 | 408 | 349
RPMI 5 mM glucose + 10% FBS | 397 | 404 | 332
RPMI 5 mM glucose + 10% dialyzed FBS | 377 | 416 | 337

O=c1cc(O)c(Cl)c[nH]1
AUC of viability dose-response curve
Details | NOMO1 | P12-Ichikawa [1] | SEM cells [2]
HPLM + 10% dialyzed FBS | 378 | 391 | 455
RPMI 5 mM glucose + 10% FBS | 396 | 395 | 416
RPMI 5 mM glucose + 10% dialyzed FBS | 394 | 417 | 453
